Six molecules from ChEMBL document CHEMBL1152040, “The stereochemical requirements of the novel -opioid selective dipeptide antagonist TMT-Tic” (Bioorg Med Chem Lett, 1997) can be followed below.

The target of one experiment is Mu-type opioid receptor (Cavia porcellus, UniProt P97266). Briefly: The compound was evaluated for the binding affinity towards mu-opioid receptor by displacement of [3H]DAMGO radioligand from guinea pig ileum. It is filed as tissue-based. Background: In a radioligand displacement assay an active substance lowers the binding of a labelled ligand.
Mu-type opioid receptor, sequence (P97266 whole entry): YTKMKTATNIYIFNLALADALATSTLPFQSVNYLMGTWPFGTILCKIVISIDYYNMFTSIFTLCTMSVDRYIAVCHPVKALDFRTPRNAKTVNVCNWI
The target in experiment [1] is Delta-type opioid receptor (Mus musculus, UniProt P32300). Briefly: The compound was evaluated for the binding affinity towards delta-opioid receptor by displacement of [3H]p-CI-DPDPE radioligand from mouse vas deferens. It is filed as tissue-based.
Delta-type opioid receptor, sequence (P32300 whole entry): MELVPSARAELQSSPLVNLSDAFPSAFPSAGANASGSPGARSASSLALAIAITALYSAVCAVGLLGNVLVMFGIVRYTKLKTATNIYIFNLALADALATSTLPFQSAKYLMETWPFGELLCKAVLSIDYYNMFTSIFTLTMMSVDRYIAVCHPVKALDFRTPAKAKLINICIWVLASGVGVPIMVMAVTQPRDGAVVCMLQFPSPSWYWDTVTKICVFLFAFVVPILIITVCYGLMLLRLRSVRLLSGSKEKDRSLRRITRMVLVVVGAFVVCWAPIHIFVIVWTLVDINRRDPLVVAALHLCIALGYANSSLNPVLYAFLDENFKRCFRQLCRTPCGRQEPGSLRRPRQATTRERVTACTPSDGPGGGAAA

pIC50, pKi: −log10 of the molar value.

In the case of `Cc1cc(O)cc(C)c1C(C)C(NC(=O)OC(C)(C)C)C(=O)N1Cc2ccccc2C[C@H]1C(=O)OCc1ccccc1` (some centres not stated), the pIC50 was 5.08 at Mu-type opioid receptor and 7.72 in experiment [1].

Take `Cc1cc(O)cc(C)c1[C@@H](C)[C@@H](N)C(=O)N1Cc2ccccc2C[C@H]1C(=O)O`: the pIC50 on Mu-type opioid receptor was less than 4.10; in experiment [1] it was less than 5.00.

For `Cc1cc(O)cc(C)c1[C@H](C)[C@@H](N)C(=O)N1Cc2ccccc2C[C@H]1C(=O)O`, the results for the pIC50 (on Mu-type opioid receptor; in experiment [1]) were less than 4.10 and less than 5.00, respectively.

For the molecule `Cc1cc(O)cc(C)c1[C@@H](C)[C@H](N)C(=O)N1Cc2ccccc2C[C@H]1C(=O)O`, the pIC50 was 4.46 on Mu-type opioid receptor and 8.03 in experiment [1].

With `Cc1cc(O)cc(C)c1[C@H](C)[C@H](N)C(=O)N1Cc2ccccc2C[C@H]1C(=O)O`, the negative logarithm of the IC50 (pIC50) at Mu-type opioid receptor is less than 4.10; in experiment [1], 6.91.

`NC(Cc1ccc(O)cc1)C(=O)N1Cc2ccccc2C[C@H]1C(=O)O` (single isomer, unassigned): the figures for the pKi (on Mu-type opioid receptor; in experiment [1]) were 4.55 and 6.72, respectively.

A word on the pIC50: it is −log10 of the IC50, conventionally taken in molar units. A higher pIC50 goes with a low IC50. As a reminder, the pKi is the Ki on a negative log10 scale, so that one unit is a factor of ten. The low end stands for a high Ki, the high end for a low Ki.
